Measurements published in patent publication US20030175769A1, “Reagents for improved PCR” (priority 2001, published 2003).

Legend:
[1] = test system: plasmid containing the complete DPD cDNA; experiment: Real time PCR signal intensity, FRET-HybProbe formate; type: biochemical; conditions: 0,1 g/μl compound
From the text: For this experiment, the primer mix according to example 3 was used. Various amounts of plasmid containing the complete DPD cDNA ranging from 0,4 to 40 fg were amplified with the primer mix by means of PCR under the conditions of example 3 in the presence or absence of […] compound III according to example 2.
For Real Time PCR detection, FRET-hybridization probes from the LightCycler Dihydropyrimidin-Dehydrogenase (DPD) mRNA quantification kit (Roche Molecular Biochemicals, cat. No. 3136957) were used in concentrations according to the manufacturer's instructions.

[2] = test system: PCR amplification mixture; experiment: Hot start effect when added to a PCR amplification mixture; type: biochemical

O=C(O)C1=C/C(=C(/c2ccc(O)c(C(=O)O)c2)c2cc(Cc3ccc(O)c(C(=O)O)c3)c(O)c(C(=O)O)c2)C=CC1=O [Compound I]
specific amplification signal (FIG. 3a) ([1]; 0,4 fg template DNA): can only be obtained in presence of the additive
specific signaling, cycle number of detection (FIG. 3b,c) ([1]; higher template concentrations (4 fg, 40 fg)): detected at earlier cycle numbers
hot start effect [2]: extensive hot start effect
